Data from patent publication US9034403B2, “Yeast extract containing γ-Glu-X or γ-Glu-X-Gly and a method for producing the same” (AJINOMOTO CO., INC., priority 2010, dated 2015).

Test system: S288C PADH1-HGT1 (Hgt1p overproducing strain) and S288C
Assay: Peptide uptake of Hgt1p overproducing strain and parental strain S288C, intracellular content on dry weight cell
Type: cell-based, Saccharomyces cerevisiae
Experimental: One loop of the S288C strain was inoculated into SD medium (50 ml in a 500 ml-volume Sakaguchi flask), and cultured at 30° C. for 24 hours with shaking at a velocity of 120 rpm. Absorbance of the obtained culture broth was measured, the culture broth was inoculated into SD medium (400 ml in a 2 L-volume conical flask with baffle fins, two or more flasks) so that OD660 was 0.01 at the start of the culture, and culture was performed at 30° C. for 19 hours with shaking by rotation at a velocity of 120 rpm. After 19 hours, γ-Glu-Val-Gly aqueous solutions of various concentrations were added to obtain predetermined concentrations, and the culture was continued for 1 hour. Using these culture broths, the γ-Glu-Val-Gly content in dry cells was calculated in the same manner as in Example 2. Furthermore, the solid content of the extract was calculated, and the amount of γ-Glu-Val-Gly in the solid content was also calculated.
The S288C PADH1-HGT1, Hgt1p overproducing strain obtained in Example 12, and its parental strain S288C, were evaluated for their ability to take up γ-Glu-Val-Gly in the same manners as described in Example 4. The amount of γ-Glu-Val-Gly added into the medium was 100 ppm as a final concentration. As a result, intracellular content of γ-Glu-Val-Gly in S288C on the dry weight cell was about 0.9%, but intracellular content of γ-Glu-Val-Gly in S288C PADH1-HGT1 on the dry weight cell was about 4.9%.
S288C PADH1-HGT1, Hgt1p overproducing strain obtained in Example 12, and its parental strain S288C were evaluated for their γ-Glu-nVal-Gly uptake abilities in the same manners as described in Example 4 and Example 13. The amount of γ-Glu-nVal-Gly added to the medium was 100 ppm as a final concentration.

CC(C)[C@H](NC(=O)CC[C@H](N)C(=O)O)C(=O)NCC(=O)O [γ-Glu-Val-Gly]
intracellular content of γ-Glu-Val-Gly on the dry weight cell (S288C PADH1-HGT1, γ-Glu-Val-Gly 100 ppm added into the medium): about 4.9% | intracellular content of γ-Glu-Val-Gly on the dry weight cell (S288C, γ-Glu-Val-Gly 100 ppm added into the medium): about 0.9% | intracellular content of γ-Glu-Val-Gly on the dry weight cell (S288C, γ-Glu-nVal-Gly 100 ppm added to the medium): about 0.09%
